Molecules are shown by their SMILES.

The values that follow come from paper PMC5823473, “Host-parasite co-metabolic activation of antitrypanosomal aminomethyl-benzoxaboroles” (PLoS Pathogens, 2018).

The target of one experiment is T1, MAOa (Homo sapiens, UniProt P21397).
T1 construct: commercial recombinant enzyme (Sigma)
T1 sequence (P21397 1-527): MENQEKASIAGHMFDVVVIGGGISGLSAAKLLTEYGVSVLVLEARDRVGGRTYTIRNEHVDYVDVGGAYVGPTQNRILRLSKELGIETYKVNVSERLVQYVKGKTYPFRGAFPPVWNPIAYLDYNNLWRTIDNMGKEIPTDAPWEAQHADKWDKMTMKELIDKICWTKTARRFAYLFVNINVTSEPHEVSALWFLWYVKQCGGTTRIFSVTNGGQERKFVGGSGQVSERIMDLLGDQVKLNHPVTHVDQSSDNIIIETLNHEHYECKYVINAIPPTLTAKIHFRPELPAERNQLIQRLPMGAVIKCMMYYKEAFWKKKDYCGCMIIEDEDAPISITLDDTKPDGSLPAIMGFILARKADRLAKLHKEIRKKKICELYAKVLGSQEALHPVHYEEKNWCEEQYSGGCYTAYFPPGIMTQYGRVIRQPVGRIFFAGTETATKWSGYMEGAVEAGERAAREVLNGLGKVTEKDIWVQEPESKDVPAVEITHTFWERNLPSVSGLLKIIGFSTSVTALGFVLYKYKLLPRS
Nature of the experiment: HPLC-MS of metabolites. In kind it is biochemical. As to conditions: oxidised to the aldehyde.

A further experiment has as its target T2, TbALDH3 (Trypanosoma brucei, UniProt Q583M9).
T2 construct: gene Tb06.5F5.780; A6-K490 seen in crystal
T2 sequence (Q583M9 1-543): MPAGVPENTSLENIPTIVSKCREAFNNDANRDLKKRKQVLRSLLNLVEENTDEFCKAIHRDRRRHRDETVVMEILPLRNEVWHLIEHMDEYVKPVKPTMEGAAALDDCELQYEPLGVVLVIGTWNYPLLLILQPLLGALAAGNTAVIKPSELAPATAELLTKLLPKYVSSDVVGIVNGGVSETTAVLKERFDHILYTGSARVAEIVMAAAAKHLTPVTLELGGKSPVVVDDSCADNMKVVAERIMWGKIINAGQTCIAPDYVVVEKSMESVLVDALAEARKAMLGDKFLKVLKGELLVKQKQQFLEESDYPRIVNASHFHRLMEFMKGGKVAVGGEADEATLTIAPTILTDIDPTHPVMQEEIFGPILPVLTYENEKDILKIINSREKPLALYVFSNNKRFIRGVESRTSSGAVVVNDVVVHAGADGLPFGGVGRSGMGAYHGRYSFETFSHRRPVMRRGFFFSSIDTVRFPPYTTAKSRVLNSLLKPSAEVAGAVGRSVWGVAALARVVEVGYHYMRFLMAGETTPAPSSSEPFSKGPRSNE
Briefly: HPLC-MS of metabolites, coupled with MAOa or FBS. It counts as biochemical. As to conditions: aldehyde made in situ from AN3057; oxidised to the carboxylate (AN2861).

Consider `NCc1ccc(Oc2ccc3c(c2)COB3O)cc1` [AN3057, (4-(1-hydroxy-1,3-dihydrobenzo[c][1,2]oxaborol-5-yloxy)phenyl)methanaminium chloride], for which, on MAOa, the HPLC-MS of metabolites result is “the methylamine group in the structure is first converted by MAOa into an aldehyde”.

For the compound `O=Cc1ccc(Oc2ccc3c(c2)COB3O)cc1` [AN3057-aldehyde], the “HPLC-MS of metabolites, coupled with MAOa or FBS” value on TbALDH3 was “converted by MAOa into an aldehyde, and then is further metabolized into a carboxylic acid”.
